What was measured:
HIV virus strains 1-4 = assay: Measured phenotype (pFR = -log fold resistance), censored values, genotype/phenotype dataset; assay type: cell-based; details: pFR = -log(FR)
Description: (§1) For the purposes of the invention, the mutations identified should be associated with resistance or susceptibility to drug therapy, for example an antiretroviral drug. The degree to which a particular mutation pattern may affect resistance may be determined by one of skill in the art, for example, using the phenotypic resistance monitoring assay such as, the ANTIVIROGRAM® (Virco, Belgium) (see WO97/27480). In this methodology, resistance is determined with respect to a laboratory reference strain HIVLAI/IIIB. The difference in IC50 (the concentration of drug required to reduce the virus' growth in cell culture by 50%) between the patient sample and the reference viral strain is determined as a quotient. This fold change in IC50 is reported and indicative of the resistance profile of a certain drug. Based on the changes in IC50, cut-off values have been established to distinguish a sample from being sensitive or resistant to a certain drug.
The phenotypes are presented as pFR values, where pFR is equal to −log(FR), where FR denotes the Fold Resistance. Negative pFR values thus denote resistance and positive values denote hyper-susceptibility. For example, a pFR value of −1.0 is equal to 10-fold resistance.
The used dataset consists of a set of matching genotype/phenotype measurements with possible multiple phenotype measurements per genotype. The mutations are defined relative to HXB2 at amino acid level. The phenotypes are presented as pFR values, which is equal to −log(FR), where FR denotes the Fold Resistance.
In this example, the method developed by the inventors to deal with censored values was applied for the drug amprenavir. Firstly, a linear regression model without censored values was calculated, see the values ‘APV_pFR’ for iteration 0 in the Tables 18-21 below. The phenotypic measured value is <−2.083062017 for Virus strain 1, for the first iteration, the value V0 is equal to the measured phenotype value APV_pFR, but the censor is considered as ‘=’. This was followed by iteration nr. 1. Once the values were obtained from iteration 1, the inventors compared the prediction value P, e.g. for Virus strain 1, −2.362076895 with the phenotypic measured value <−2.083062017. For virus strains 1, 2 and 3 below, the measured values have a censor ‘<’. For virus strains 4, the measured value has a censor ‘>’. The scenarios established by the inventors, when the case was ‘<’-censor, and when the case was ‘>’-censor, were applied. New linear regression models were calculated and for the censored values in the linear regression model, either the data-points from the training set were removed, as for virus strains 1, 2 and for virus strain 4 (iteration 2 and 3 only), or those data-points were used instead of the censored phenotypes measurement, as illustrated for virus strain 3 and for virus strain 4 (only iteration 1). The procedure was reiterated until the prediction converged.

one HIV-1 sample = assay: Phenotypic antiviral experiment (as described in WO97/27480), fold change in IC50/EC50 relative to reference wild-type virus; assay type: cell-based; details: fold change in IC50 or EC50 relative to reference wild-type virus
Description: as §1
The results were expressed in FR, or fold change in IC50 or EC50, relative to reference wild-type virus, which is the drug concentration at which 50% of the enzyme activity is inhibited, and is expressed in μM units. The FR cutoffs values for normal susceptible ranges were 8, 10, and 6, for nevirapine, delavirdine, and efavirenz, respectively.
The phenotypic antiviral experiment was taken as the gold-standard by the inventors. Said phenotypic antiviral experiment was performed as described in WO97/27480.

CC(C)CN(C[C@@H](O)[C@H](Cc1ccccc1)NC(=O)O[C@H]1CCOC1)S(=O)(=O)c1ccc(N)cc1 [APV, amprenavir]
APV_pFR (phenotypic measured value) (HIV virus strains 1-4; Virus strain 1, censor '<'): < −2.083 | APV_pFR (phenotypic measured value) (HIV virus strains 1-4; Virus strain 1, censor '<', listed as amprenavir): < −2.083 | APV_pFR (phenotypic measured value) (HIV virus strains 1-4; Virus strain 2, censor '<'): < −1.909 | APV_pFR (phenotypic measured value) (HIV virus strains 1-4; Virus strain 3, censor '<'): <−1.957 | APV_pFR (phenotypic measured value) (HIV virus strains 1-4; Virus strain 4, censor '>'): > 0.5154

Cc1ccnc2c1NC(=O)c1cccnc1N2C1CC1 [Nevirapine]
FR (phenotypic antiviral experiment) (one HIV-1 sample): >89

CC(C)Nc1cccnc1N1CCN(C(=O)c2cc3cc(NS(C)(=O)=O)ccc3[nH]2)CC1 [delavirdine]
FR (phenotypic antiviral experiment) (one HIV-1 sample): 3.7

O=C1Nc2ccc(Cl)cc2[C@@](C#CC2CC2)(C(F)(F)F)O1 [efavirenz]
FR (phenotypic antiviral experiment) (one HIV-1 sample): 17.5
